Assay results reported in US6329389A, “Amine compounds, their production and use” (Takeda Chemical Industries, Ltd., priority 1998, dated 2001).
Counter-ions that a name gives are not always drawn. Values belong to the compound of their own block, whether it stands above or below them.

Assays:
rat astrocyte = experiment: Inhibitory effect on forskolin-stimulated accumulation of cAMP in rat astrocyte; assay type: cell-based
Method: Inhibitory effect on forskolin-stimulated accumulation of cAMP in rat astrocyte
For measurement of the accumulated intracellular adenosine 3',5'-monophosphate (cAMP), newborn rat astrocytes prepared in accordance with the method of Mc carthy, K. D. et al. [Cell Biology, 85, 890-920, 1980] were proliferated in 24-well plate until they were confluent. Said cells were washed twice with 1 ml of Medium A [Dulbecco's Modified Eagle Medium (DMEM), 20 mM 2-[4-(2-hydroxyethyl)-1-piperazinyl]ethanesulfonic acid (HEPES) (pH 7.5), 0.2% bovine serum albumin and 0.2 mM 3-isobutyl-1-methylxanthine (IBMX)]. The medium A was placed in wells each in a quantity of 400 μl and incubated at 37° C. for an hour. […] The cells were washed twice with 1 ml of Medium A. 500 μl of Medium A and 100 μl of a 20% aqueous perchloric acid solution were placed in each well and left standing for20 minutes at 4° C. to lyse the cells. The lyzate was placed in an Eppendorf's tube and centrifuged (15.000 rpm, 10 minutes). The supernatant was placed in another Eppendorf's tube in quantity of 500 μl and neutralized with 60 mM of a HEPES aqueous solution containing 1.5 M of potassium chloride. The content of cAMP in this extract was determined by the Amersham kit (cAMP EIA system).

[1] = target: human somatostatin receptor protein subtype 4 (hSSTR4); experiment: Binding inhibition of 125I-somatostatin-14, IC50, SSTR4 membrane fraction; details: 125I-somatostatin-14, human SSTR4 CHO cell membrane fraction, 25° C., 60 minutes
[2] = target: T1, rat somatostatin receptor protein subtype 4 (rSSTR4) (Rattus norvegicus, UniProt P30937); experiment: Binding inhibition of 125I-somatostatin-14, IC50, rat SSTR4 membrane fraction; details: 125I-somatostatin-14, rat SSTR4 CHO cell membrane fraction, 25° C., 60 minutes
T1 construct: expressed in transfected cells; host or cells: CHO (dhfr-) cells, strain rSSTR4-20-25

[3] = target: T2, human somatostatin receptor protein subtype 2 (SSTR2) (Homo sapiens, UniProt P30874); experiment: Binding inhibition of 125I-somatostatin-14, IC50, SSTR2 membrane fraction; details: 125I-somatostatin-14, CHO cell membrane fraction, 25° C., 60 minutes
T2 construct: expressed in transfected cells; host or cells: CHO (dhfr-) cells, strain SSTR2-HS5-9

[4] = target: T3, human somatostatin receptor protein subtype 3 (SSTR3) (Homo sapiens, UniProt P32745); experiment: Binding inhibition of 125I-somatostatin-14, IC50, SSTR3 membrane fraction; details: 125I-somatostatin-14, CHO cell membrane fraction, 25° C., 60 minutes
T3 construct: expressed in transfected cells; host or cells: CHO (dhfr-) cells, strain SSTR3-15-19
T3 sequence (P32745 whole entry): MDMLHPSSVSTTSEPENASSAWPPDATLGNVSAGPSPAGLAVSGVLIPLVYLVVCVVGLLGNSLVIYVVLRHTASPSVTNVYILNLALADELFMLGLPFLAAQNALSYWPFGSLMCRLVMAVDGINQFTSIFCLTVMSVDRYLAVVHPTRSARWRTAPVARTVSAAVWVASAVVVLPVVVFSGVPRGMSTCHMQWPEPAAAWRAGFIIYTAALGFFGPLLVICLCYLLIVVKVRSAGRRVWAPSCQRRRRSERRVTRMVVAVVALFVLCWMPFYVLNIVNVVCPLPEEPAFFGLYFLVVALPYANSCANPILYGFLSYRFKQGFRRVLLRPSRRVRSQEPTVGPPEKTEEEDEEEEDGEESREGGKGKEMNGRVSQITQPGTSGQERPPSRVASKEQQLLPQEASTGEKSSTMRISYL

T2 sequence (P30874 whole entry): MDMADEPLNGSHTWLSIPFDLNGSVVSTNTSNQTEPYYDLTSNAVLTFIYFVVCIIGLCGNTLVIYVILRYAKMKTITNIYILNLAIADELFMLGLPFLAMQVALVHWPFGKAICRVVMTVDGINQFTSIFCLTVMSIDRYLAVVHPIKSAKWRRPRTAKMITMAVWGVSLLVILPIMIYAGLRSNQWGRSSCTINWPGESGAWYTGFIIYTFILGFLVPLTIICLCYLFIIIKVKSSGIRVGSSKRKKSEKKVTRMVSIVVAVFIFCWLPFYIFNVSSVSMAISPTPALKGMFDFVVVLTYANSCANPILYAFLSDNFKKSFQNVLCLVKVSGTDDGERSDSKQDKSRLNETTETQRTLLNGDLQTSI
T1 sequence (P30937 whole entry): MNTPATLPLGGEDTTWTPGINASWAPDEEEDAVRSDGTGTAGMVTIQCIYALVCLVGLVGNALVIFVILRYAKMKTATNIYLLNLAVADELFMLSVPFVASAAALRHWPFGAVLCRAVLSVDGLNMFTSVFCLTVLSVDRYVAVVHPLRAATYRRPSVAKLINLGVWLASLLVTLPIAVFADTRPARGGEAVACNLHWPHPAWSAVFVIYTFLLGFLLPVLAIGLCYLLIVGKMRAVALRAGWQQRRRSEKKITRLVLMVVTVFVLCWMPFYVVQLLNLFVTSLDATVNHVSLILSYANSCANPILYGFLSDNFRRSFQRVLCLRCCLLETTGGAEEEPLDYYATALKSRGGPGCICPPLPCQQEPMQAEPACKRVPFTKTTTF

Compound: Somatostatin-14: Somatostatin-14, the reference peptide in the rat astrocyte cAMP test [reference compound]
inhibition of the intracellular accumulation of cAMP at the time of stimulation by forskolin (rat astrocyte; compound 10 nM, forskolin 10 μM, rat astrocytes, 37° C., an hour): 83%

IC50 [1]: 7 nM
IC50 [2]: 10 nM
agonistic effect on the rat somatostatin receptor (rat astrocyte; conclusion from cAMP test in rat astrocytes): has an agonistic effect
Compound: O=C(CCc1nc(-c2cc3ccccc3o2)no1)N1CC(CN2CCCC2)Cc2ccccc21 (stereo not drawn) [Example 56, 1-[3-(3-(2-Benzofuranyl)-1,2,4-oxadiazol-5-yl]propanoyl]-3-(pirrolidin-1-yl)methyl-1,2,3,4-tetrahydroquinoline oxalate]
inhibition at 0.01 µM (rat astrocyte; Astrocyte, compound 10 nM, forskolin 10 μM, rat astrocytes, 37° C., an hour, read-out: inhibition of the intracellular accumulation of cAMP at the time of stimulation by forskolin): 43%

IC50 [3]: 9 nM
IC50 [4]: 0.8 nM
Compound: CN(C)CC1Cc2ccccc2N(C(=O)[C@@H](Cc2c[nH]c3ccccc23)NC(=O)N2CCN(c3ccccc3)CC2)C1 (stereo partly drawn) [Example 88, 3-(R,S)-(N,N-Dimethylamino)methyl-1-[3-(indol-3-yl)-2-[(R)-(4-phenylpiperazin-1-yl)]carbonylaminolpropanoyl]-1,2,3,4-tetrahydroquinoline]

IC50 [3]: 3 nM
IC50 [4]: 2 nM
Compound: CN(C)CC1Cc2ccccc2N(C(=O)[C@@H](Cc2c[nH]c3ccccc23)NC(=O)N2CCC(n3c(=O)[nH]c4ccccc43)CC2)C1 (stereo partly drawn) [Example 89, 3-(R,S)-(N,N-Dimethylamino)methyl-1-[3-(indol-3-yl)-2-[(R)-4-(2-oxo-2,3-dihydro-1H-benzimidazol-1-yl]piperidinocarbonylamino]propanoyl]-1,2,3,4-tetrahydroquinoline]
